What is called IC50 is the concentration at which inhibition is half-maximal.

Structures can show the parent of a compound that is named as a salt.

The record followed here is US5352690A, “1,2,4-trioxygenated benzene derivatives useful as leukotriene antagonists” (Eli Lilly and Company, priority 1992, dated 1994).

Experiment [1] concerns the target [^3 H]-LTB4 binding to receptors on human neutrophils (Homo sapiens, UniProt Q15722). Put plainly: biochemical. Particulars: [^3 H]-LTB4 2.65 nM (20 μl), 4° C., 10 minutes. Here is the method:
The effectiveness of the compounds of the present invention to inhibit binding of [^3 H]-LTB4 to human neutrophils was measured by using an adaptation of a radioligand binding assay developed by Goldman, D. W. and Goetzl, E. J.: Specific binding of leukotriene B4 to receptors on human polymornuclear leukocytes. J. Immunol. 129: 1600-1604(1982). Heparinized venous blood was drawn from normal human volunteers and neutrophils isolated by standard techniques of Ficoll-Hypaque centrifugation, dextran 70 sedimentation and hypotonic lysis. […] The binding assay was carried out in silanized 12×75 mm glass tubes by adding in the following order: 10 μl DMSO containing different amounts of test compound,20 μl of 2.65 nM [^3 H]-LTB4 and 500 μl of the cells suspended in Hanks' balanced salt solution containing 0.1% ovalbumin (2×10^7 cells/ml). Tubes were incubated at 4° C. for 10 minutes and the reaction terminated by isolating the cells with a Brandel MB-48R harvester. Radioactivity bound to the cells was measured by scintillation spectrometry. Nonspecific binding was determined by measuring the amount of label bound when a greater than 2000-fold excess of nonradioactive ligand was added. Appropriate corrections for nonspecific binding were made when analyzing the data.

Experiment [2] concerns the target [^3 H]-LTB4 binding, guinea pig lung membranes (Cavia porcellus, UniProt H0VYV8). Briefly: [^3 H]-LTB4 Radioligand Binding Assay in Guinea Pig Lung Membranes. To be noted: read-out: Binding Guinea Pig Lung pKi (converted).

[^3 H]-LTB4 binding to receptors on human neutrophils, sequence (Q15722 whole entry): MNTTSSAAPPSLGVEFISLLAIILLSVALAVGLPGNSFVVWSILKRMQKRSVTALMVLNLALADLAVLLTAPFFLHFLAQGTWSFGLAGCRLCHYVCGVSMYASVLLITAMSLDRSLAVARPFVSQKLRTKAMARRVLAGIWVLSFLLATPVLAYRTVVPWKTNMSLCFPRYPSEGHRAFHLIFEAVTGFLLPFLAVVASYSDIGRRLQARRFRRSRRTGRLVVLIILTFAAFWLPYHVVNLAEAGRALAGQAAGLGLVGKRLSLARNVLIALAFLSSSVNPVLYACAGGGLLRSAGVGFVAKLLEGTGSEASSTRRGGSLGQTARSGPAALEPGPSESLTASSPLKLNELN
[^3 H]-LTB4 binding, guinea pig lung membranes, sequence (H0VYV8 1-348): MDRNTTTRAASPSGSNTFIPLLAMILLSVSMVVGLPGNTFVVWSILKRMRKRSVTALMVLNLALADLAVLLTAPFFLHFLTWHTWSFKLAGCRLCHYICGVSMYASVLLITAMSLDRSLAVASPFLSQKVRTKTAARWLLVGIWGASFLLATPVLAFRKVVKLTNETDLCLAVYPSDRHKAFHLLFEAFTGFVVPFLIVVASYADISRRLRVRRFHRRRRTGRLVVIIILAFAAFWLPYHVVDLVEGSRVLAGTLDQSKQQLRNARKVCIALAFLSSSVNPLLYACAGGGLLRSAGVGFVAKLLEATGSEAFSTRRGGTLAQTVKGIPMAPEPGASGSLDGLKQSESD

In the case of `CCCc1c(OCCCOc2cc(O)c(OC)cc2CC)ccc2c1OC(C(=O)O)CC2` (stereo not shown) [Example 9, 3,4-Dihydro-8-propyl-7-[3-(2-ethyl-5-hydroxy-4-methoxy-phenoxy)propoxy]-2H-1-benzopyran-2-carboxylic acid], the concentration for half-maximal inhibition (IC50) in experiment [1] stood at 2.9 nM. The Ki in experiment [2] is 1.51 nM.

In the case of `CCCc1c(OCCCOc2cc(O)c(OCC)cc2CC)ccc2c1OC(C(=O)O)CC2` (stereo not shown) [Example 10, 3,4-Dihydro-8-propyl-7-[3-(2-ethyl-5-hydroxy-4-ethoxy-phenoxy)propoxy]-2H-1-benzopyran-2-carboxylic acid], the IC50 in experiment [1] turned out to be 4.2 nM. The Ki in experiment [2] is 1.29 nM. In turn, `CCc1cc(Sc2ccccc2)c(O)cc1OCCCCCC(C)(C)c1nn[nH]n1` [disodium salt] returned an IC50 in experiment [1] of 885 nM. Further, the Ki in experiment [2] was 219 nM. Regarding `CCCCCOc1cc(CC)c(OCCCCCC(C)(C)c2nn[nH]n2)cc1O` [sodium salt], the Ki in experiment [2] is 21.4 nM. On the same count and under the same terms, the result for `CCOc1cc(CC)c(OCCCCCC(C)(C)c2nn[nH]n2)cc1O` [sodium salt] reads 12.3 nM; that for `CCc1cc(OC(C)C)c(O)cc1OCCCCCC(C)(C)c1nn[nH]n1` [sodium salt], 40.7 nM. For the compound `CCc1cc(OC)c(O)cc1OCCCCCC(C)(C)c1nn[nH]n1` [sodium salt], the Ki in experiment [2] was 22.9 nM.

Consider `CCc1cc(OC2CCCC2)c(O)cc1OCCCCCC(C)(C)c1nn[nH]n1` [sodium salt], for which the Ki in experiment [2] was 77.6 nM. The same measure, in the same setting: the same measure for `CCc1cc(OCCC(C)C)c(O)cc1OCCCCCC(C)(C)c1nn[nH]n1` [sodium salt]: 74.1 nM. For the compound `CCc1cc(OCc2ccc(F)cc2)c(O)cc1OCCCCCC(C)(C)c1nn[nH]n1` [sodium salt], the Ki in experiment [2] was 110 nM.
